In US20110098325A1, “PYRIDINE BENZAMIDES AND PYRAZINE BENZAMIDES USED AS PKD INHIBITORS” (CANCER RESEARCH TECHNOLOGY LIMITED, priority 2006, published 2011):

The compounds below were run against T1, Murine PKD1 kinase domain (Mus musculus, UniProt Q62101) (assay: PKD1 (Murine Kinase Domain) Enzyme Activity Assay (IMAP fluorescence polarisation)). Conditions: 10 μM ATP, 60 minutes, room temperature.
T1 construct: hexahistidine (pFastBac HTb leader) (N); made in house; host or cells: Sf9 insect cells, baculovirus (Bac-to-Bac HT, pFastBac HTb)
T1 sequence (Q62101 with tags, fused parts or gaps R683W): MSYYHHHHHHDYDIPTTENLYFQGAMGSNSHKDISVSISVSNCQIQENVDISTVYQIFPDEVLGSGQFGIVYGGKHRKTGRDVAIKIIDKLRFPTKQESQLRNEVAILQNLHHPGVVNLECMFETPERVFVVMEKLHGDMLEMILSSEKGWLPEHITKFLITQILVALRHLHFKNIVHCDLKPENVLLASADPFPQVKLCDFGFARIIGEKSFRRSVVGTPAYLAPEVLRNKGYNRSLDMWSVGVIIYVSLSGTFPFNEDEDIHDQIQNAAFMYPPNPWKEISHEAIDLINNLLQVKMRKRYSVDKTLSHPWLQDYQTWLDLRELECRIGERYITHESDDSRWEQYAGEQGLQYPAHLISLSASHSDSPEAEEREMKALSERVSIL
Type: biochemical

| IC50 [nM] | SMILES |
| --- | --- |
| < 1000 | CN(C)CCNC(=O)c1cccc(-c2cnc(N)c(-c3ccc(F)cc3)c2)c1 [Y-058, 3-[6-Amino-5-(4-fluoro-phenyl)-pyridin-3-yl]-N-(2-dimethylamino-ethyl)-benzamide] |
| < 1000 | COc1cc(-c2cc(-c3cccc(C(=O)NCCCN(C)C)c3)cnc2N)ccc1O [Y-060, 3-[6-Amino-5-(4-hydroxy-3-methoxy-phenyl)-pyridin-3-yl]-N-(3-dimethylamino-propyl)-benzamide] |
| < 1000 | CN(C)CCNC(=O)c1cccc(-c2cnc(N)c(-c3ccc(CO)cc3)c2)c1 [Y-061, 3-[6-Amino-5-(4-hydroxymethyl-phenyl)-pyridin-3-yl]-N-(2-dimethylamino-ethyl)-benzamide] |
| < 1000 | CC(C)Cc1ccc(-c2cc(-c3cccc(C(=O)NCCN(C)C)c3)cnc2N)cc1 [Y-062, 3-[6-Amino-5-(4-isobutyl-phenyl)-pyridin-3-yl]-N-(2-dimethylamino-ethyl)-benzamide] |
| < 1000 | COc1ccc(-c2cc(-c3cccc(C(=O)NCCN(C)C)c3)cnc2N)cc1 [Y-063, 3-[6-Amino-5-(4-methoxy-phenyl)-pyridin-3-yl]-N-(2-dimethylamino-ethyl)-benzamide] |
| < 1000 | CN(C)CCNC(=O)c1cccc(-c2cnc(N)c(-c3ccc(OC(F)(F)F)cc3)c2)c1 [Y-064, 3-[6-Amino-5-(4-trifluoromethoxy-phenyl)-pyridin-3-yl]-N-(2-dimethylamino-ethyl)-benzamide] |
| < 1000 | CN(C)CCNC(=O)c1cccc(-c2cnc(N)c(-c3ccc(OC4CCCCO4)cc3)c2)c1 (stereo not shown) [Y-065, 3-{6-Amino-5-[4-(tetrahydro-pyran-2-yloxy)-phenyl]-pyridin-3-yl}-N-(2-dimethylamino-ethyl)-benzamide] |
| < 1000 | COC(=O)c1ccc(-c2cc(-c3cccc(C(=O)NCCN(C)C)c3)cnc2N)cc1OC [Y-066, 4-{2-Amino-5-[3-(2-dimethylamino-ethylcarbamoyl)-phenyl]-pyridin-3-yl}-2-methoxy-benzoic acid methyl ester] |
| < 1000 | CN(C)CCNC(=O)c1cccc(-c2cnc(N)c(-c3ccc(Oc4ccccc4)cc3)c2)c1 [Y-067, 3-[6-Amino-5-(4-phenoxy-phenyl)-pyridin-3-yl]-N-(2-dimethylamino-ethyl)-benzamide] |
| < 1000 | CN(C)CCNC(=O)c1cccc(-c2cnc(N)c(-c3ccc(C(C)(C)C)cc3)c2)c1 [Y-068, 3-[6-Amino-5-(4-tert-butyl-phenyl)-pyridin-3-yl]-N-(2-dimethylamino-ethyl)-benzamide] |
| < 1000 | CN(C)CCNC(=O)c1cccc(-c2cnc(N)c(-c3ccc(C(F)(F)F)cc3)c2)c1 [Y-069, 3-[6-Amino-5-(4-trifluoromethyl-phenyl)-pyridin-3-yl]-N-(2-dimethylamino-ethyl)-benzamide] |
| < 1000 | CN(C)CCNC(=O)c1cccc(-c2cnc(N)c(-c3ccc(C(=O)c4ccccc4)cc3)c2)c1 [Y-070, 3-[6-Amino-5-(4-benzoyl-phenyl)-pyridin-3-yl]-N-(2-dimethylamino-ethyl)-benzamide] |
| < 1000 | CN(C)CCNC(=O)c1cccc(-c2cnc(N)c(-c3ccnc(O)c3)c2)c1 [Y-071, 3-(2-Amino-2′-hydroxy-[3,4′]bipyridinyl-5-yl)-N-(2-dimethylamino-ethyl)-benzamide] |
| 1000 to 10000 | CN(C)CCNC(=O)c1cccc(-c2cnc(N)c(-c3cccc(S(C)(=O)=O)c3)c2)c1 [Y-072, 3-[6-Amino-5-(3-methanesulfonyl-phenyl)-pyridin-3-yl]-N-(2-dimethylamino-ethyl)-benzamide] |
| 1000 to 10000 | CCOc1cccc(-c2cc(-c3cccc(C(=O)NCCN(C)C)c3)cnc2N)c1 [Y-073, 3-[6-Amino-5-(3-ethoxy-phenyl)-pyridin-3-yl]-N-(2-dimethylamino-ethyl)-benzamide] |
| < 1000 | CNc1ncc(-c2cccc(C(=O)NCCN(C)C)c2)cc1-c1cccc(OC)c1 [Y-074, N-(2-Dimethylamino-ethyl)-3-[5-(3-methoxy-phenyl)-6-methylamino-pyridin-3-yl]-benzamide] |
